Several values for one entry are separate records, joined by “and”; a condition that tells them apart may be missing. Equal values may be shown once. Inconclusive results and toxic doses are left out.

This test has as its system CD2F1 mice, L1210 leukemia ip, survival T/C. The experiment in a line: NCI In Vivo Anticancer Drug Screen. Data for tumor model L1210 Leukemia (intraperitoneal) in CD2F1 (CDF1) mice. As to conditions: endpoint: mean survival time, higher = longer survival. An outline of the steps:
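Each value reflects a quotient of treated over vehicle control outcomes in mice with a transplanted tumor.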

[1] abbreviates: dose: 100.0 mg/kg/injection, schedule: Q01DX009 (ip), vehicle: saline with Tween-80.
Setting [2] is: dose: 100.0 mg/kg/injection, schedule: Q04DX003 (ip), vehicle: saline with Tween-80.
Setting [3] is: dose: 200.0 mg/kg/injection, schedule: Q01DX009 (ip), vehicle: saline with Tween-80.
The mark [4] stands for this setting: dose: 200.0 mg/kg/injection, schedule: Q04DX003 (ip), vehicle: saline with Tween-80.
The mark [5] stands for this setting: dose: 400.0 mg/kg/injection, schedule: Q01DX009 (ip), vehicle: saline with Tween-80.
Where [6] appears, read: dose: 400.0 mg/kg/injection, schedule: Q04DX003 (ip), vehicle: saline with Tween-80.
[7] abbreviates: dose: 100.0 mg/kg/injection, schedule: Q01DX009 (ip), vehicle: saline.

Regarding `CC(=O)c1cccc(N=NN(C)C)c1`, the T/C was 124 % of control (dose: 46.0 mg/kg/injection, schedule: Q01DX009 (ip), vehicle: Klucel (hydroxypropylcellulose) (HPC)); 154 % of control (dose: 69.0 mg/kg/injection, schedule: Q01DX009 (ip), vehicle: Klucel (hydroxypropylcellulose) (HPC)); 87 % of control and 107 % of control (dose: 158.0 mg/kg/injection, schedule: Q01DX009 (ip), vehicle: Klucel (hydroxypropylcellulose) (HPC)).
As to `CC1(C(=O)O)CCCC2(C)c3cc(O)ccc3CCC12` (centres undefined), the T/C is, setting by setting: (dose: 50.0 mg/kg/injection, schedule: Q01DX009 (ip), vehicle: Klucel (hydroxypropylcellulose) (HPC)) 94 % of control; (dose: 100.0 mg/kg/injection, schedule: Q01DX009 (ip), vehicle: Klucel (hydroxypropylcellulose) (HPC)) 90 % of control.
Take `Nc1ncc(N)c(N)n1`: the T/C by setting is: (dose: 250.0 mg/kg/injection, schedule: Q04DX003 (ip), vehicle: saline sonified) 102 % of control; (dose: 500.0 mg/kg/injection, schedule: Q04DX003 (ip), vehicle: saline sonified) 98 % of control; (dose: 1000.0 mg/kg/injection, schedule: Q04DX003 (ip), vehicle: saline sonified) 103 % of control.
`O=S1(=O)Oc2cccc3cccc1c23`: the T/C reads like this: under setting [1], 95 % of control; under setting [2], 102 % of control; under setting [3], 98 % of control; under setting [4], 102 % of control; under setting [5], 92 % of control; under setting [6], 103 % of control.
With `COC1OC(CN=[N+]=[N-])C(N=[N+]=[N-])C(OS(C)(=O)=O)C1OS(C)(=O)=O` (centres undefined), the T/C runs as follows: under setting [1], 95 % of control; under setting [3], 95 % of control; under setting [5], 90 % of control.
On to `CCOC(=O)CCCCCSc1nn(C2OC(CO)C(O)C2O)c(=O)[nH]c1=O` (centres undefined), for which the T/C (dose: 12.5 mg/kg/injection, schedule: Q01DX005 (ip), vehicle: distilled water + Tween-80) is 103 % of control; the T/C (dose: 25.0 mg/kg/injection, schedule: Q01DX005 (ip), vehicle: distilled water + Tween-80) was 98 % of control; the T/C (dose: 50.0 mg/kg/injection, schedule: Q01DX005 (ip), vehicle: distilled water + Tween-80) is 104 % of control; the T/C (dose: 100.0 mg/kg/injection, schedule: Q01DX005 (ip), vehicle: distilled water + Tween-80) was 103 % of control; the T/C (dose: 200.0 mg/kg/injection, schedule: Q01DX005 (ip), vehicle: distilled water + Tween-80) was 97 % of control.
In the case of `FC(F)(F)/C([S-])=C(/[S-])C(F)(F)F.[Ni].[c-]1[c-][c-][cH-][c-]1`, the T/C runs as follows: (dose: 9.5 mg/kg/injection, schedule: Q01DX001 (ip), vehicle: other) 92 % of control; (dose: 19.0 mg/kg/injection, schedule: Q01DX001 (ip), vehicle: other) 93 % of control.
Turning to `S=C(S)Nc1cccc2ccccc12`, the T/C is, setting by setting: under setting [1], 93 % of control; under setting [3], 97 % of control; under setting [5], 93 % of control.
As for `CN(C)Cc1cc(OCc2ccccc2)cc(CN(C)C)c1O`, the T/C (dose: 75.0 mg/kg/injection, schedule: Q01DX001 (ip), vehicle: saline) is 108 % of control.
Consider `CC(=O)C(CN(C)C)C(C)=O`, for which the T/C reads like this: (dose: 75.0 mg/kg/injection, schedule: Q01DX001 (ip), vehicle: other) 106 % of control; (dose: 150.0 mg/kg/injection, schedule: Q01DX001 (ip), vehicle: other) 106 % of control.
Regarding `C=C(C)C(=O)OC1C/C(CO)=C\C(O)C/C(C)=C/C2OC(=O)C(=C)C21` (centres undefined), the T/C runs as follows: (dose: 1.25 mg/kg/injection, schedule: Q01DX009 (ip), vehicle: saline + alcohol) 103 % of control and 104 % of control; (dose: 2.5 mg/kg/injection, schedule: Q01DX009 (ip), vehicle: saline + alcohol) 116 % of control and 101 % of control; (dose: 3.75 mg/kg/injection, schedule: Q01DX009 (ip), vehicle: saline + alcohol) 114 % of control; (dose: 5.0 mg/kg/injection, schedule: Q01DX009 (ip), vehicle: saline + alcohol) 113 % of control and 123 % of control; (dose: 7.5 mg/kg/injection, schedule: Q01DX009 (ip), vehicle: saline + alcohol) 114 % of control; (dose: 10.0 mg/kg/injection, schedule: Q01DX009 (ip), vehicle: saline + alcohol) 110 % of control. Besides, the T/C was 106 % of control (dose: 15.0 mg/kg/injection, schedule: Q01DX009 (ip), vehicle: saline + alcohol); 122 % of control (dose: 20.0 mg/kg/injection, schedule: Q01DX009 (ip), vehicle: saline + alcohol); 120 % of control (dose: 30.0 mg/kg/injection, schedule: Q01DX009 (ip), vehicle: saline + alcohol); 97 % of control (dose: 40.0 mg/kg/injection, schedule: Q01DX009 (ip), vehicle: saline + alcohol).
Consider `N#C/C(=C/C=C/c1ccccc1)c1ccc([N+](=O)[O-])cc1`, for which the T/C (dose: 100.0 mg/kg/injection, schedule: Q04DX002 (ip), vehicle: other) was 111 % of control; the T/C (dose: 200.0 mg/kg/injection, schedule: Q04DX002 (ip), vehicle: other) is 100 % of control; the T/C (dose: 400.0 mg/kg/injection, schedule: Q04DX002 (ip), vehicle: other) was 96 % of control.
Take `Cc1ccc(C2(C#N)CCCC2)cc1`: the T/C runs as follows: (dose: 100.0 mg/kg/injection, schedule: Q01DX009 (ip), vehicle: saline sonified) 97 % of control; under setting [2], 97 % of control; (dose: 200.0 mg/kg/injection, schedule: Q01DX009 (ip), vehicle: saline sonified) 97 % of control; under setting [4], 97 % of control; (dose: 400.0 mg/kg/injection, schedule: Q01DX009 (ip), vehicle: saline sonified) 88 % of control; under setting [6], 97 % of control.
Consider `Cc1cccc(NC(=O)Nc2ccc(Oc3ccccc3Cl)c(S(=O)(=O)O)c2)c1`, for which the T/C is, setting by setting: (dose: 50.0 mg/kg/injection, schedule: Q01DX009 (ip), vehicle: saline) 101 % of control; under setting [7], 95 % of control; (dose: 100.0 mg/kg/injection, schedule: Q04DX003 (ip), vehicle: saline) 95 % of control; (dose: 200.0 mg/kg/injection, schedule: Q04DX003 (ip), vehicle: saline) 95 % of control.
Regarding `Cc1ncc(CO)c(CO)c1O`, the T/C was 100 % of control under setting [7]; 94 % of control (dose: 200.0 mg/kg/injection, schedule: Q01DX009 (ip), vehicle: saline); 95 % of control (dose: 400.0 mg/kg/injection, schedule: Q01DX009 (ip), vehicle: saline).
As to `OC1(C(Cl)(Cl)Cl)CCCCC1`, the T/C (dose: 100.0 mg/kg/injection, schedule: Q01DX009 (ip), vehicle: other) is 101 % of control; the T/C (dose: 200.0 mg/kg/injection, schedule: Q01DX009 (ip), vehicle: other) is 103 % of control; the T/C (dose: 400.0 mg/kg/injection, schedule: Q01DX009 (ip), vehicle: other) was 106 % of control.

Source of the values: PubChem BioAssay AID256 (DTP/NCI, 2004).
